US8946299B2, “Use of calixarenes associated with an antibiotic in the treatment of bacterial infections” (Universite de Lorraine, priority 2011, dated 2015)
“And” between values parts separate entries of the source, which are not always exact repeats. Equal values may be shown once.

What was measured:
[1] = system: Staphylococcus aureus strain ATCC 29213 (wild type); experiment: Chessboard technique: MICs alone and synergism of Cx1 combinations; assay type: cell-based; conditions: for Initials MIC (antibiotic): antibiotic used alone, second figure of the cell
Description: (§1) Three reference strains were used, corresponding to those studied for the MICs and MBCs (Minimum Bactericidal Concentration): Escherichia coli ATCC 25922, Staphylococcus aureus ATCC 29213, Pseudomonas aeruginosa ATCC 27853. For each of these strains 3 corresponding clinical isolates were chosen, having various antibiotic-resistance profiles, routinely used in standard fashion: • EcR1, EcR2, EcR3; • SaR1, SaR3, SaR4; • PaR2, PaR3, PaR5.
(§2) 1.3. Procedure: Chessboard Technique
(§3) The bacterial suspension is transferred to a 15 mL Falcon tube, centrifuged for 10 min at 4500 g, then the pellet is re-suspended in 1 mL of sterile distilled water. Suitable dilutions are then prepared in order to obtain a bacterial inoculum between 5·10^5 and 5·10^6 CFU/mL.
(§4) The MICs of the antibiotics were previously determined for each strain, by the method of microdilution in a liquid medium (CLSI (Clinical and Laboratory Standards Institute), 2003).
(§5) The same procedure is followed for the Cx1. […] Thus 64 ATB/Cx1 combinations are obtained.
(§6) The final volume contained in each of the wells must be 100 μL. Two controls must be present on each plate: • column 1 and 12: medium control • column 2 and 11: medium+bacteria control
(§7) Cx1: […] in the wells of […], starting with the lowest concentration.
(§8) ATB: 25 μL in the wells of rows H to A (columns 3 to 11), starting with the lowest concentration.
(§9) 50 μL in each of the wells of columns 2 to 11.
(§10) D2: Reading the Turbidity at 540 Nm.
(§11) The FIC (Fractional Inhibitory Concentration Index) value is determined by the following formula:
(§12) [formula] MICA in combination MICA alone MICB in combination MICB alone
(§13) When FIC≦0.5, there is a synergistic effect between antibiotic A and antibiotic B.
(§14) When 0.5<FIC≦1, there is an additive effect between antibiotic A and antibiotic B.
(§15) When 1<FIC≦4, there is an indifferent effect between antibiotic A and antibiotic B.
(§16) When FIC>4, there is an antagonistic effect between antibiotic A and antibiotic B.
(§17) For each strain and each antibiotic/Cx1 combination, the experiments were repeated a minimum of 3 times.

[2] = system: SaR3: Meticillin-Resistant Staphylococcus aureus; experiment: Antibiogram by the disk diffusion technique; assay type: cell-based; conditions: Table E1; strain SaR3
[3] = system: MRSA strain having a resistance to the aminoglycosides and fluoroquinolones (SaR3); experiment: Chessboard technique: MICs alone and synergism of Cx1 combinations; assay type: cell-based, Staphylococcus aureus; conditions: n = 4; for MIC (antibiotic): antibiotic used alone, second figure of the cell
Description: as §1, §2, §3, §4, §5, §6, §7, §8, §9, §10, §11, §12, §13, §14, §15, §16, §17

[4] = system: MRSA strain having a resistance to the aminoglycosides, fluoroquinolones, macrolides-lincosamides-synergistins and ofloxacin (SaR4); experiment: as above; assay type: cell-based, Staphylococcus aureus; conditions: n = 4; for MIC (antibiotic): antibiotic used alone, second figure of the cell
Description: as §1, §2, §3, §4, §5, §6, §7, §8, §9, §10, §11, §12, §13, §14, §15, §16, §17

[5] = system: MRSA strain without associated resistance (SaR1); experiment: as above; assay type: cell-based, Staphylococcus aureus; conditions: n = 4; for MIC (antibiotic): antibiotic used alone, second figure of the cell
Description: as §1, §2, §3, §4, §5, §6, §7, §8, §9, §10, §11, §12, §13, §14, §15, §16, §17

[6] = system: SaR1: Meticillin-Resistant Staphylococcus aureus without Associated Resistance; experiment: Antibiogram by the VITEK 2 system; assay type: cell-based; conditions: Table D1; strain SaR1
Method: 5.4 SaR1: Meticillin-Resistant Staphylococcus aureus without Associated Resistance
The bacterial and antibiogram identification is carried out by the VITEK 2 system (bioMérieux)
February 2006: Detection of the gene mecA by the PCR technique: POSITIVE Expert finding July 2006: totally typical phenotype: modification of the PLPs The fluctuations relative to the type of associated resistance for certain strains between Tables D1 and D2 are due to the development of the French (CA-SFM), European (EUCAST) and American (CLSI) recommendations for the categorization of bacterial strains. 5.5 SaR3: Meticillin-Resistant Staphylococcus aureus Having an Associated Resistance to the Aminoglycosides and Fluoroquinolones The bacterial and antibiogram identification is carried out by the VITEK 2 system (bioMérieux) and by the disk diffusion technique

[7] = system: penicillinase-producing strain of Escherichia coli without associated resistance (EcR1); experiment: Chessboard technique: MICs alone and synergism of Cx1 combinations; assay type: cell-based; conditions: n = 4; for Initial MICs (antibiotic): antibiotic used alone, second figure of the cell
Description: as §1, §2, §3, §4, §5, §6, §7, §8, §9, §10, §11, §12, §13, §14, §15, §16, §17

[8] = system: Escherichia coli strain ATCC 25922 (wild type); experiment: as above; assay type: cell-based; conditions: for Initial MICs (antibiotic): antibiotic used alone, second figure of the cell
Description: as §1, §2, §3, §4, §5, §6, §7, §8, §9, §10, §11, §12, §13, §14, §15, §16, §17

[9] = system: cephalosporinase-hyperproducing strain of Escherichia coli (EcR2); experiment: as above; assay type: cell-based; conditions: n = 4; for Initial MICs (antibiotic): antibiotic used alone, second figure of the cell
Description: as §1, §2, §3, §4, §5, §6, §7, §8, §9, §10, §11, §12, §13, §14, §15, §16, §17

[10] = system: ESBL-producing strain of Escherichia coli (EcR3); experiment: as above; assay type: cell-based; conditions: n = 4; for Initial MICs (antibiotic): antibiotic used alone, second figure of the cell
Description: as §1, §2, §3, §4, §5, §6, §7, §8, §9, §10, §11, §12, §13, §14, §15, §16, §17

[11] = system: EcR1: Penicillinase-Producing Escherichia coli without Associated Resistance; experiment: Antibiogram, MIC by the VITEK 2 system; assay type: cell-based; conditions: Table A1, category from MIC
Method: (§18) 5. Identification and Antibiogram 5.1 EcR1: Penicillinase-Producing Escherichia coli without Associated Resistance
(§19) The bacterial and antibiogram identification is carried out by the VITEK 2 system (bioMérieux) and by the disk diffusion technique.

[12] = system: EcR1: Penicillinase-Producing Escherichia coli without Associated Resistance; experiment: Antibiogram by the disk diffusion technique; assay type: cell-based; conditions: for Results (diameter): Table A1, category from diameter vs Dmin Dmax
Method: as §18, §19

[13] = system: Pseudomonas aeruginosa strain ATCC 27853 (wild type); experiment: Chessboard technique: MICs alone and synergism of Cx1 combinations; assay type: cell-based; conditions: for MIC (antibiotic): antibiotic used alone, second figure of the cell
Description: as §1, §2, §3, §4, §5, §6, §7, §8, §9, §10, §11, §12, §13, §14, §15, §16, §17

[14] = system: mucoid strain of Pseudomonas aeruginosa having a resistance to rifampicin and the trimethoprim-sulphamethoxazole combination (PaR5); experiment: as above; assay type: cell-based; conditions: n = 4; for MIC (antibiotic): antibiotic used alone, second figure of the cell
Description: as §1, §2, §3, §4, §5, §6, §7, §8, §9, §10, §11, §12, §13, §14, §15, §16, §17

[15] = system: Pseudomonas aeruginosa strain having a resistance to β-lactams (including the carbapenems), aminoglycosides, the trimethoprim-sulphamethoxazole combination and …; experiment: as above; assay type: cell-based; conditions: n = 4; for MIC (antibiotic): antibiotic used alone, second figure of the cell
Description: as §1, §2, §3, §4, §5, §6, §7, §8, §9, §10, §11, §12, §13, §14, §15, §16, §17

[16] = system: Pseudomonas aeruginosa strain having a resistance to β-lactams, the trimethoprim-sulphamethoxazole combination and fosfomycin (PaR2); assay type: cell-based; conditions: n = 4; for MIC (antibiotic): antibiotic used alone, second figure of the cell
Description: as §1, §2, §3, §4, §5, §6, §7, §8, §9, §10, §11, §12, §13, §14, §15, §16, §17

[17] = system: EcR2: Cephalosporinase-Hyperproducing Escherichia coli; experiment: Antibiogram by the disk diffusion technique; assay type: cell-based; conditions: Table B2; strain EcR2; diameters
Method: 5.2 EcR2: Cephalosporinase-Hyperproducing Escherichia coli Having an Associated Resistance to the Aminoglycosides, Quinolones and the Trimethoprim-Sulphamethoxazole Combination
The bacterial and antibiogram identification is carried out by the VITEK 1 system (bioMérieux) and by the disk diffusion technique

[18] = system: Escherichia coli, Staphylococcus aureus and Pseudomonas aeruginosa strains; experiment: Chessboard technique, summary over all strains and combinations tested; assay type: cell-based
Description: as §1, §2
The FIC (Fractional Inhibitory Concentration Index) value is determined by the following formula: […]
as §17

[19] = system: PaR5: Pseudomonas aeruginosa; experiment: Antibiogram by the disk diffusion technique; assay type: cell-based; parameters: unit not given here; conditions: Table I1; strain PaR5
[20] = Cx1 used alone, first figure of the cell, n = 4
[21] = Cx1 used alone, first figure of the cell

Compound: CC1(C)S[C@@H]2[C@H](NC(=O)Cc3ccccc3)C(=O)N2[C@H]1C(=O)O [Penicillin G]
- Initials MIC (antibiotic) ([1]; n = 4): 1 mg/L
- Diameter [2]: 26
- MIC (antibiotic) [3]: 0.5 mg/L
- MIC (antibiotic) [4]: 4 mg/L
- MIC (antibiotic) [5]: 0.5 mg/L
- Diameter [6]: 28

Compound: CCN1CCN(C(=O)N[C@@H](C(=O)N[C@@H]2C(=O)N3[C@@H]2SC(C)(C)[C@@H]3C(=O)O)c2ccccc2)C(=O)C1=O [Piperacillin]
- Initial MICs (antibiotic) [7]: 256 mg/L
- Initial MICs (antibiotic) ([8]; n = 4): 2 mg/L
- Initial MICs (antibiotic) [9]: 32 mg/L
- Initial MICs (antibiotic) [10]: 128 mg/L
- Results (MIC) [11]: Susceptible
- Results (diameter) [12]: Intermediate

Compound: CO[C@H]1/C=C/O[C@@]2(C)Oc3c(C)c(O)c4c(O)c(c(/C=N/N5CCN(C)CC5)c(O)c4c3C2=O)NC(=O)/C(C)=C\C=C\[C@H](C)[C@H](O)[C@@H](C)[C@@H](O)[C@@H](C)[C@H](OC(C)=O)[C@@H]1C [Rifampicin]
- MIC (antibiotic) ([13]; n = 4): 64 mg/L
- MIC (antibiotic) [14]: 16 mg/L
- Initial MICs (antibiotic) [7]: 4 mg/L
- Initial MICs (antibiotic) ([8]; n = 4): 4/4 mg/L
- Initial MICs (antibiotic) [9]: 2/2 mg/L
- Initial MICs (antibiotic) [10]: 4 mg/L
- MIC (antibiotic) [15]: 32/32 mg/L
- MIC (antibiotic) [16]: 64 mg/L
- diameter in mm ([12]; Table A2, diameter): 16 mm

Compound: NC[C@H]1O[C@H](O[C@H]2[C@H](O)[C@@H](O[C@H]3O[C@H](CO)[C@@H](O)[C@H](N)[C@H]3O)[C@H](N)C[C@@H]2N)[C@H](N)C[C@@H]1O [Tobramycin]
- MIC (antibiotic) ([13]; n = 4): 0.5 mg/L
- MIC (antibiotic) [14]: 1 mg/L
- Initial MICs (antibiotic) [9]: 4 mg/L
- Initial MICs (antibiotic) [10]: 4 mg/L
- MIC (antibiotic) [15]: 64 mg/L
- diameter in mm [17]: 10 mm
- MIC (antibiotic) [16]: 1 mg/L
- nature of the interaction between Cx1 and the antibiotic [18]: synergism
- Results (MIC) [11]: Susceptible
- Results (diameter) [12]: Susceptible

Compound: Gentamicin
- Initials MIC (antibiotic) ([1]; n = 4): 0.25 mg/L
- Initial MICs (antibiotic) [7]: 0.125 mg/L
- Initial MICs (antibiotic) ([8]; n = 4): 0.125 mg/L
- Initial MICs (antibiotic) [9]: 2/2 mg/L
- Initial MICs (antibiotic) [10]: 2/2 mg/L
- Diameter [2]: 20
- MIC (antibiotic) [3]: 0.125 mg/L
- MIC (antibiotic) [4]: 0.25 mg/L
- MIC (antibiotic) [5]: 0.25 mg/L
- Diameter [19]: 25
- Diameter [6]: 23
- nature of the interaction between Cx1 and the antibiotic [18]: synergism
- Results (MIC) [11]: Susceptible
- Results (diameter) [12]: Susceptible
- Diameter ([12]; Table A1, disk diffusion): 20

Compound: Pristinamycin
- Diameter [2]: 23
- Diameter [6]: 25

Compound: para-guanidinoethylcalix[4]arene [Cx1]
- Initial MICs (Cx1) ([13]; Cx1 alone, P. aeruginosa ATCC 27853): 32/32 mg/L and 32 mg/L
- MIC (Cx1) [13, 20]: 32 mg/L
- MIC (Cx1) [14, 21]: 32/32 mg/L and 32 mg/L
- Initial MICs (Cx1) ([1]; Cx1 alone, S. aureus ATCC 29213): 8 mg/L
- Initials MIC (Cx1) [1, 20]: 8 mg/L and 8/8 mg/L
- Initial MICs (Cx1) [7, 21]: 2 mg/L
- Initial MICs (Cx1) ([8]; Cx1 alone, E. coli ATCC 25922): 4 mg/L
- Initial MICs (Cx1) [8, 20]: 4 mg/L and 2 mg/L and 4/4 mg/L
- Initial MICs (Cx1) [9, 21]: 2 mg/L and 2/2 mg/L
- Initial MICs (Cx1) [10, 21]: 2 mg/L and 2/2 mg/L
- MIC (Cx1) [15, 21]: 32 mg/L and 32/32 mg/L
- MIC (Cx1) [3, 21]: 8 mg/L and 8/8 mg/L
- MIC (Cx1) [4, 21]: 8 mg/L
- MIC (Cx1) [5, 21]: 8 mg/L
- MIC (Cx1) [16, 21]: 32 mg/L
